Test results from ChEMBL document CHEMBL3045931, “QSAR studies of antituberculosis drug using three-dimensional structure descriptors” (Med Chem Res, 2013).

test system: Mycobacterium tuberculosis; test: Antitubercular activity against Mycobacterium tuberculosis assessed as growth inhibition […]; format: functional, organism-based; conditions: read-out: log(1/IC50) (converted)

Row | Compound | IC50 [µM]
1 | Cc1ccc(C(=O)N2CCN(c3ccccc3)CC2)cc1 | 16.6
2 | Cc1cccc(C(=O)N2CCN(c3cccc(Cl)c3)CC2)c1 | 9.33
3 | O=C(c1ccc(F)cc1)N1CCN(c2cccc(Cl)c2)CC1 | 9.77
4 | Cc1ccc(C(=O)N2CCN(c3cccc(C(F)(F)F)c3)CC2)cc1C | 1.86
5 | CC(C)(C)c1ccc(C(=O)N2CCN(c3cccc(Cl)c3)CC2)cc1 | 100
6 | CC(C)(C)c1ccc(C(=O)N2CCN(c3cccc(C(F)(F)F)c3)CC2)cc1 | 100
7 | O=C(c1cccc(Cl)c1)N1CCN(c2cccc(Cl)c2)CC1 | 6.76
8 | O=C(c1ccc(Cl)c(Cl)c1)N1CCN(c2ccccc2)CC1 | 17.8
9 | O=C(c1ccccc1)N1CCN(Cc2ccccc2)CC1 | 31.6
10 | O=C(c1cccc(Cl)c1)N1CCC(Cc2ccccc2)CC1 | 7.76
11 | Cc1ccc(C(=O)N2CCC(Cc3ccccc3)CC2)cc1 | 5.13
12 | O=C(c1ccccc1)N1CCN(c2ccccc2)CC1 | 38.9
13 | O=C(c1ccc2[nH]ccc2c1)N1CCN(C(c2ccc(F)cc2)c2ccc(F)cc2)CC1 | 1.05
14 | Cc1ccc(C(=O)N2CCN(C(c3ccc(F)cc3)c3ccc(F)cc3)CC2)cc1 | 1.91
15 | O=C(c1ccccc1)N1CCN(C(c2ccc(F)cc2)c2ccc(F)cc2)CC1 | 2.04
16 | CC(C)c1ccc(C(=O)N2CCN(c3cccc(Cl)c3)CC2)cc1 | 100
17 | O=C(c1ccccc1F)N1CCN(c2cccc(Cl)c2)CC1 | 13.8
18 | Cc1ccc(C(=O)N2CCN(c3cccc(C(F)(F)F)c3)CC2)cc1 | 6.31
19 | Cc1cccc(C(=O)N2CCN(c3ccc([N+](=O)[O-])cc3)CC2)c1 | 15.5
20 | Cc1ccc(N2CCN(C(=O)c3ccc(C(C)(C)C)cc3)CC2)cc1Cl | 100
21 | O=C(c1ccc(Cl)c(Cl)c1)N1CCN(c2cccc(Cl)c2)CC1 | 6.03
22 | Cc1ccc(C(=O)N2CCN(c3cccc(Cl)c3)CC2)cc1 | 3.09
23 | O=C(c1ccccc1F)N1CCC(Cc2ccccc2)CC1 | 14.1
